Results taken from publication PMC10991380, “Cloning, functional expression, and pharmacological characterization of inwardly rectifying potassium channels (Kir) from Apis mellifera” (Scientific Reports, 2024).

Assays:
Assay in all cases: two-electrode voltage clamp, Xenopus oocytes
Format in all cases: cell-based, Apis mellifera
Settings in all cases: 96 mM KCl Ringer, pH 7.6; holding potential -80 mV; VU041 in DMSO
AmKir2.3 = system: T1, AmKir2.3
T1 construct: homotetramer; N-terminal tail 31 residues shorter than AmKir2.2

AmKir2.2 = system: T2, AmKir2.2
T2 construct: homotetramer; N-terminal tail 31 residues longer than AmKir2.3

AmKir1.1 = system: T3, AmKir1.1
T3 construct: homotetramer; longer N-terminal and shorter C-terminal tail than AmKir2

## O=C(Cn1nc(C(F)(F)F)c2c1CCCC2)N1CCCc2ccccc21 [VU041]
AmKir2.3
  % inhibition at 10^-5 M: 24.04 ± 1.92%
AmKir2.2
  % inhibition at 10^-4 M: 45.65 ± 5.01%
AmKir1.1
  % inhibition at 10^-4 M: 48.94 ± 3.79%
